Laboratory results as given in patent US20070128217A1 (priority 2003, published 2007).

What was measured:
[1] = test system: rabbit serum obtained by immunizing a rabbit with the SARS-CoV strain Frankfurt 1; type: binding; set-up: Binding of a rabbit serum to linear peptides / Binding of a rabbit serum to looped peptides / Rabbit serum linear peptides / Rabbit serum looped peptides / Binding of a rabbit serum to linear peptides of protein N of SARS-CoV Urbani (Rabbit serum linear peptides) / Binding of a rabbit serum to looped/cyclic peptides of protein N of SARS-CoV Urbani (Rabbit serum looped peptides): unit not given here
[2] = test system: antibodies in sera from SARS patients (sera 1a, 1b, 2, 6, 37, 62, London, SARS-yellow, SARS-green); type: binding, human; set-up: Binding of serum 6 to linear peptides of protein X1 of SARS-CoV Urbani / Binding of serum 37 to linear peptides of protein X1 of SARS-CoV Urbani / Binding of serum 6 to looped/cyclic peptide (PEPSCAN-ELISA) / Binding of serum 37 to looped/cyclic peptide (PEPSCAN-ELISA) / Binding of serum 37 to looped/cyclic peptides of protein X1 of SARS-CoV Urbani / Binding of serum 6 to linear peptides of protein X2 / Binding of serum 37 to linear peptides of protein X2 / Binding of serum 37 to looped/cyclic peptides of protein X2 of SARS-CoV Urbani / Binding of serum 6 to linear peptides of protein M of SARS-CoV Urbani / Binding of serum 37 to linear peptides of protein M of SARS-CoV Urbani / Binding of serum 6 to looped/cyclic peptides of protein M of SARS-CoV Urbani / Binding of serum 37 to looped/cyclic peptides of protein M of SARS-CoV Urbani / Binding of serum 6 to linear peptides of protein X3 of SARS-CoV Urbani / Binding of serum 37 to linear peptides of protein X3 of SARS-CoV Urbani / Binding of serum 37 to looped/cyclic peptides of protein X3 of SARS-CoV Urbani / Binding of serum 6 to linear peptides of protein X4 of SARS-CoV Urbani / Binding of serum 37 to linear peptides of protein X4 of SARS-CoV Urbani / Binding of serum 37 to looped/cyclic peptides of protein X4 of SARS-CoV Urbani / Binding of serum 6 to linear peptides of protein X5 of SARS-CoV Urbani / Binding of serum 37 to linear peptides of protein X5 of SARS-CoV Urbani / Binding of serum 37 to looped/cyclic peptides of protein X5 of SARS-CoV Urbani / Binding of serum 6 to linear peptides of protein N of SARS-CoV Urbani / Binding of serum 37 to linear peptides of protein N of SARS-CoV Urbani / Binding of serum 6 to linear peptide (PEPSCAN-ELISA) / Binding of serum 1a to looped/cyclic peptides of protein N of SARS-CoV Urbani / Binding of serum 1b to looped/cyclic peptides of protein N of SARS-CoV Urbani / Binding of serum 2 to looped/cyclic peptides of protein N of SARS-CoV Urbani / Binding of serum 6 to looped/cyclic peptides of protein N of SARS-CoV Urbani / Binding of serum 37 to looped/cyclic peptides of protein N of SARS-CoV Urbani / Binding of serum 62 to looped/cyclic peptides of protein N of SARS-CoV Urbani / Binding of serum London to looped/cyclic peptides of protein N of SARS-CoV Urbani / Binding of serum SARS-green to looped/cyclic peptides of protein N of SARS-CoV Urbani: unit not given here
[3] = test system: control sera (pooled serum of ten healthy LUMC hospital workers; commercial negative donor pooled serum from the Dutch bloodbank); type: binding, human; set-up: Binding of Control serum LUMC to linear peptides / Binding of Control serum Blood-bank to linear peptides / Binding of Control serum LUMC to looped peptides / Binding of Control Serum Blood-Bank to Looped peptides / Binding of Control serum LUMC to linear peptides of the protein M of SARS-CoV Urbani / Binding of Control serum Blood-bank to linear peptides of the protein M of SARS-CoV Urbani / Binding of Control serum LUMC to looped peptides of the protein M of SARS-CoV Urbani / Binding of Control Serum Blood-Bank to Looped peptides of the protein M of SARS-CoV Urbani: unit not given here

Sequence | Binding of a rabbit serum to linear peptides [1] | Binding of a rabbit serum to looped peptides [1] | Binding of serum 1a to linear peptides of protein X1 of SARS-CoV Urbani [2] | Binding of serum 1a to looped/cyclic peptide (PEPSCAN-ELISA) [2] | Binding of serum 1b to linear peptides of protein X1 of SARS-CoV Urbani [2] | Binding of serum 1b to looped/cyclic peptide (PEPSCAN-ELISA) [2] | Binding of serum 2 to linear peptides of protein X1 of SARS-CoV Urbani [2] | Binding of serum 2 to looped/cyclic peptide (PEPSCAN-ELISA) [2] | Binding of serum 6 to linear peptides of protein X1 of SARS-CoV Urbani [2] | Binding of serum 6 to looped/cyclic peptide (PEPSCAN-ELISA) [2] | Binding of serum 37 to linear peptides of protein X1 of SARS-CoV Urbani [2] | Binding of serum 37 to looped/cyclic peptide (PEPSCAN-ELISA) [2] | Binding of serum 62 to linear peptides of protein X1 of SARS-CoV Urbani [2] | Binding of serum 62 to looped/cyclic peptide (PEPSCAN-ELISA) [2] | Binding of serum London to linear peptides of protein X1 of SARS-CoV Urbani [2] | Binding of serum London to looped/cyclic peptide (PEPSCAN-ELISA) [2] | Binding of Control Serum Blood-Bank to Looped peptides [3] | Binding of Control serum Blood-bank to linear peptides [3] | Binding of Control serum LUMC to linear peptides [3] | Binding of Control serum LUMC to looped peptides [3] | further results
LLLFVTIYSHLLLVA | 0.1 | 0.5 | 0.7 | 0.5 | 0.5 | 0.3 | 0.6 | 0.4 | 0.3 | 0.2 | 0.5 | 0.5 | 0.4 | 0.4 | 0.2 | 0.2 | 0.5 | 0.4 | 0.4 | 0.5 | Binding of serum SARS-green to linear peptides of protein X1 of SARS-CoV Urbani [2]: 0.0; Binding of serum SARS-green to looped/cyclic peptide (PEPSCAN-ELISA) [2]: 0.2; Binding of serum SARS-yellow to linear peptides of protein X1 of SARS-CoV Urbani [2]: 0.3; Binding of serum SARS-yellow to looped/cyclic peptide (PEPSCAN-ELISA) [2]: 0.4
LLLLFVTIYSHLLLV | 0.1 | 0.5 | 0.7 | 0.5 | 0.5 | 0.3 | 0.8 | 0.5 | 0.4 | 0.3 | 0.5 | 0.6 | 0.4 | 0.6 | 0.2 | 0.2 | 0.6 | 0.5 | 0.6 | 0.5 | Binding of serum SARS-green to linear peptides of protein X1 of SARS-CoV Urbani [2]: 0.3; Binding of serum SARS-green to looped/cyclic peptide (PEPSCAN-ELISA) [2]: 0.2; Binding of serum SARS-yellow to linear peptides of protein X1 of SARS-CoV Urbani [2]: 0.3; Binding of serum SARS-yellow to looped/cyclic peptide (PEPSCAN-ELISA) [2]: 0.5
LLLVAAGMEAQFLYL | 0.2 | 0.5 | 0.9 | 0.6 | 0.8 | 0.5 | 0.6 | 0.6 | 0.5 | 0.3 | 0.6 | 0.7 | 0.6 | 0.7 | 0.2 | 0.2 | 0.5 | 0.6 | 1.0 | 0.7 | Binding of serum SARS-green to linear peptides of protein X1 of SARS-CoV Urbani [2]: 0.1; Binding of serum SARS-green to looped/cyclic peptide (PEPSCAN-ELISA) [2]: 0.5; Binding of serum SARS-yellow to linear peptides of protein X1 of SARS-CoV Urbani [2]: 0.6; Binding of serum SARS-yellow to looped/cyclic peptide (PEPSCAN-ELISA) [2]: 0.6
LLQTLVLKMLHSSSL | 0.2 | 0.4 | – | – | – | – | – | – | – | – | – | – | – | – | – | – | 0.6 | 0.5 | 0.3 | 0.6 | Binding of serum 1a to linear peptides of protein X2 [2]: 0.6; Binding of serum 1a to looped/cyclic peptides of protein X2 of SARS-CoV Urbani [2]: 0.5; Binding of serum 1b to linear peptides of protein X2 [2]: 0.5; Binding of serum 1b to looped/cyclic peptides of protein X2 of SARS-CoV Urbani [2]: 0.5; Binding of serum 2 to linear peptides of protein X2 [2]: 0.3; Binding of serum 2 to looped/cyclic peptides of protein X2 of SARS-CoV Urbani [2]: 0.3; Binding of serum 6 to linear peptides of protein X2 [2]: 0.3; Binding of serum 6 to looped/cyclic peptides of protein X2 of SARS-CoV Urbani [2]: 0.7; Binding of serum 37 to linear peptides of protein X2 [2]: 0.5; Binding of serum 37 to looped/cyclic peptides of protein X2 of SARS-CoV Urbani [2]: 0.4; Binding of serum 62 to linear peptides of protein X2 [2]: 0.5; Binding of serum 62 to looped/cyclic peptides of protein X2 of SARS-CoV Urbani [2]: 0.6; Binding of serum London to linear peptides of protein X2 [2]: 0.4; Binding of serum London to looped/cyclic peptides of protein X2 of SARS-CoV Urbani [2]: 1.1; Binding of serum SARS-green to linear peptides of protein X2 [2]: 0.5; Binding of serum SARS-green to looped/cyclic peptides of protein X2 of SARS-CoV Urbani [2]: 0.3; Binding of serum SARS-yellow to linear peptides of protein X2 [2]: 0.5; Binding of serum SARS-yellow to looped/cyclic peptides of protein X2 of SARS-CoV Urbani [2]: 0.5
